Source: patent US20090311246A1, “Method of Enhancing Remyelination in Demyelinating Diseases of the Central Nervous System” (priority 2008, published 2009)
Entries after “also recorded” stand apart in the source; their conditions may differ.

How the values were obtained:
Assay type in all cases: in vivo
B6 mice with EAE [1] = test: Clinical scores of E2 137-151 peptide-treated mice with MOG 35-55 induced EAE; conditions: for Disease severity, treatment from D12 post-EAE induction, compared with untreated EAE mice: 0.5 mg/injection sc in IFA on D12, 17, 22, peak D19
Experimental: FIG. 6 Comparison of Average Clinical Scores (±SEM) of E2 137-151 peptide-treated, and untreated B6 mice with EAE, on different days post treatment. Data shown is the average of three experiments, total numbers of mice were 21 EAE and 22 treated EAE mice. All mice were immunized subcutaneously with myelin oligodendrocyte glycoprotein (MOG) peptide 35-55 in CFA, on D0. Treated EAE mice received subcutaneous injection of E2-137 peptide (0.5 mg/injection or 25 mg/kg, based on the average weight of 20 g/mouse) in IFA, on day 12 post EAE induction. Additional inoculations of E2-137 peptide/IFA were performed twice more with 5-day intervals. Following the injection, animals were observed daily for clinical manifestations of disease and were scored on a scale of 0-VI, as above. Clinical scores of sacrificed and dead animals have been considered in average calculation till the end of the experiments on day 39.
Method—To induce EAE, fourteen 7-8 wk old B6 mice (Jackson Laboratories, Bar Harbor, Mass.) were each inoculated, subcutaneously, with […] MOG 35-55 in Complete Freund's Adjuvant (CFA) or CFA only (as control), followed by two injections of 100 ng of pertusis toxin, 48 hours apart (9, 73). Eight mice in EAE-induced group were immunized subcutaneously with E2-137-151 (0.5 mg/injection or 25 mg/kg, based on the average weight of 20 g/mouse) in IFA, one day after MOG inoculation. One additional inoculation of E2 137-151/IFA was performed 5 days later. Animals were observed daily for clinical manifestations of disease and were scored on a scale of 0-VI. 0=no abnormality; I=mild hind limb weakness (some difficulty righting themselves when turned on their back); II=moderate hind limb weakness, sometimes associated with floppy tail; III=weakness of hind limbs accompanied by some forelimb weakness, sometimes more marked on one limb or one side, but not complete paralysis; IV=hind limb paresis accompanied by mild forelimb weakness; V=paralysis of hind limbs, associated with moderate forelimb weakness; and VI-quadriplegia, moribund.
Result—Mice were immunized with MOG 35-55 in CFA, to induce EAE as described above. In the first two experiments, mice were divided into two groups, untreated, and treated after EAE induction. The treated EAE group received E2-137-151 peptide in IFA, subcutaneously on D5 post-EAE induction, before the signs of clinical disease were apparent.
Next, three experiments were performed with a total number of 21 RAE and 22 late treated EAE mice. […] EAE mice were further treated with E2-137-151 peptide on days 17 and 22 post-EAE induction. […] Peak of the disease in both RAE and D12 treated EAR mice were on D19 pi.

B6 mice with EAE [2] = test: Antibody responses (ELISA) of E2 137-151 peptide treated EAE mice
Experimental: FIG. 7 Comparison of antibody responses (±SEM) of EAE, E2-137-151 peptide treated, and untreated EAE mice to E2-137-151, MOG 35-55 and control peptides. Three experiments were performed with total number of 21 EAE and 22 treated EAE. All mice were immunized subcutaneously with myelin oligodendrocyte glycoprotein (MOG) peptide, 35-55 in CFA, as described above, on D0. EAE mice were treated as described for FIG. 6. All mice were sacrificed at the end of experiment on D39 post immunization.
To measure the antibody response of both WT and γδ KO mice against SFV and two of the peptides of the SFV envelope protein, E2, an indirect ELISA was performed. Sera were pooled from 4-6 SFV-infected WT, and 3 KO, mice on days 0, 7, 14, 21 and 35 pi. Briefly, Immunolon 2HB 96 well microtiter plates (VWR, Bridge Port, N.J.) were coated with 1 μg/well of each antigen in 100 μl/well carbonate buffer overnight at room temperature. After washing, the plates were blocked and serum samples were added. […] After washing, biotinylated goat anti-mouse Igs (BD Pharmingen, Torreyana, Calif.), Strepavidin conjugated to Horse Radish Peroxidase (Vector Laboratories, Burlingame, Calif.), and OPD substrate (Sigma, St. Louis, Mo.) were used, as previously described (4, 9). […] Values were considered to be positive when they were >0.3 OD units and exceeded the mean value plus three standard deviations for antibody response on day 0 pi of mice of the same strain.
Antibody Responses of RAE and E2 137-151 treated EAE mice to E2-137 and control peptide (E2 115-129) were measured by ELISA at the end of experiment on D39 pi.

B6 mice with EAE [3] = test: Inflammation, demyelination and remyelination in lumbar spinal cord of E2 137-151 treated EAE mice
From the text: All figures come from one micron epoxy sections taken from brain tissues, fixed in 2.5% glutaraldehyde/1% osmium tetroxide, embedded in epoxy resin, stained with toluidine blue and photographed by light microscopy.
In order to be able to detect the de- and remyelination accurately, at the end of the experiment, mice will be sacrificed by an overdose of sodium pentobarbital and perfused by intracardiac puncture with Trumps fixative, containing 4% paraformaldehyde and 1% glutaraldehyde. Brains and spinal cords are removed and post fixed in osmium textroxide. Each brain is sectioned coronally into three pieces by cuts through infandibulum and optic chiasm. Spinal cord tissues will be also harvested and processed. Every third block (10-12 blocks per spinal cord, cervical to lumbar range) will be embedded, along with brain sections, in Araldite plastic. The embedded tissues will be cross-sectioned at 1 μm thickness, and the slides stained with toluidine blue or 4% paraphenylenediamine to highlight the myelin sheets. We have studied the one-micron thin sections of the brains of SFV-infected WT and KO on days of 21-42 postinfection.
In order to be able to analyze de- and remyelination accurately in untreated and E2 137-151 treated LAE mice, one micron sections of lumbar spinal cords of all mice, were analyzed as described above for SFV-infected mice, on different days post immunization. […] Widespread Wallerian degeneration evidenced by dilated and collapsed myelin sheaths, some containing axonal remnants, was also observed. Cellular infiltration was present within the meningeal space as well. […] Spinal cord white matter of normal control mice is also shown for comparison (FIG. 8C)

CC[C@H](C)[C@H](NC(=O)[C@H](CCC(=O)O)NC(=O)[C@H](CCCCN)NC(=O)CNC(=O)[C@H](Cc1ccc(O)cc1)NC(=O)[C@H](Cc1c[nH]cn1)NC(=O)[C@@H]1CCCN1C(=O)[C@H](CCCNC(=N)N)NC(=O)[C@@H](NC(=O)[C@@H](NC(=O)[C@H](Cc1ccccc1)NC(=O)[C@H](CCCCN)NC(=O)[C@H](CCC(=O)O)NC(=O)[C@H](CCCNC(=N)N)NC(=O)CN)[C@@H](C)O)[C@@H](C)CC)C(=O)O [E2 137-151]
Disease severity, treatment from D12 post-EAE induction, compared with untreated EAE mice (B6 mice with EAE [1]): significantly less severe disease on peak day | Disease severity, treatment from D12 post-EAE induction, compared with untreated EAE mice (B6 mice with EAE [1]; listed as E2 137-151 peptide): significantly suppressed the clinical disease; also recorded: improved clinical EAE | Disease severity, treatment from D12 post-EAE induction, compared with untreated EAE mice (B6 mice with EAE [1]; listed as E2-137 peptide): Average disease severity in EAE mice was significantly higher than treated EAE mice | Clinical disease score at the peak of the disease on D19 (B6 mice with EAE [1]; 19 treated EAE mice (of 22), scale 0-VI): < 1.5 | Clinical signs of EAE, treatment on D5 post-EAE induction (B6 mice with EAE [1]; E2-137-151 peptide in IFA sc before clinical signs): absence of clinical signs of EAE | Antibody response to E2-137, treated compared with untreated EAE mice (B6 mice with EAE [2]; ELISA, D39 pi): significantly higher than untreated EAE mice | Antibody responses to MOG 35-55 and control peptide, treated compared with untreated EAE mice (B6 mice with EAE [2]; ELISA, D39 pi): no significant difference | Antibody response to E2-137, treated compared with untreated EAE mice (B6 mice with EAE [2]; ELISA, D39 pi, listed as E2-137 peptide): treated>untreated EAE mice | Reactivity of sera from treated EAE mice with MBP 54-68 (B6 mice with EAE [2]; preliminary experiments): also reacted with MBP 54-68 | Wallerian degeneration in lumbar spinal cord (B6 mice with EAE [3]; day 33): No wallerian degeneration | Inflammation in lumbar spinal cord (B6 mice with EAE [3]; day 33 pi): little to no inflammation; also recorded: No wallerian degeneration and inflammation is present | Remyelination in spinal cord (B6 mice with EAE [3]; day 33 pi): some remyelinating fibers; also recorded: some fibers display remyelination | Remyelination in spinal cord (B6 mice with EAE [3]; day 33 pi, listed as E2 137-151 peptide): induced remyelination
